Several values for one entry are separate records, joined by “and”; a condition that tells them apart may be missing. Equal values may be shown once.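 In this assay, cells in 96-well plates receive the compound at five concentrations for 48 hours. Endpoints are linearly interpolated between the surrounding concentrations. The concentration for 50% growth inhibition is given as GI50. Definition used: TGI = concentration required for complete inhibition of growth.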
Assays:
Test in all cases: inhibition of tumour cell growth, NCI panel, 48 h
[1] = test system: NCI-H226 lung
[2] = test system: MOLT-4 leukemia
[3] = test system: 786-0 renal
[4] = test system: CAKI-1 renal
[5] = test system: OVCAR-4 ovarian
[6] = test system: U251 CNS
[7] = test system: SF-295 CNS
[8] = test system: A498 renal
[9] = test system: OVCAR-8 ovarian
[10] = test system: SK-MEL-5 melanoma

SMILES: CCN1CCC(O)(c2ccccc2)C(C(=O)c2ccccc2)C1 (centres undefined)
- TGI [1]: 99.2 µM
- TGI [2]: > 60.2 µM
- TGI [3]: 31 µM
- TGI [4]: 19.3 µM
- TGI [5]: 32.8 µM
- TGI [6]: > 100 µM
- TGI [7]: > 100 µM
- TGI [8]: > 100 µM
- TGI [9]: 63.7 µM
- TGI [10]: > 100 µM

SMILES: O=C(O)Cc1ccccc1
- GI50 [1]: > 1000 µM
- TGI [1]: > 2000 µM
- GI50 [2]: > 1000 µM
- TGI [2]: > 1000 µM and 1260 µM
- TGI [3]: > 2000 µM
- GI50 [4]: > 1000 µM
- TGI [4]: > 1000 µM
- GI50 [5]: > 1000 µM
- TGI [5]: > 1000 µM and 727 µM
- GI50 [6]: > 1000 µM
- TGI [6]: > 2000 µM
- TGI [7]: > 2000 µM
- GI50 [8]: > 1000 µM
- TGI [8]: > 1000 µM and 1700 µM
- GI50 [9]: > 1000 µM
- TGI [9]: > 2000 µM
- GI50 [10]: > 1000 µM
- TGI [10]: > 2000 µM

SMILES: O=c1[nH]cnc2c1nnn2C1C=C(CO)C(O)C1O (centres undefined)
- TGI [1]: > 100 µM
- TGI [2]: > 100 µM
- TGI [3]: > 100 µM
- TGI [4]: > 100 µM
- TGI [5]: > 100 µM
- TGI [6]: > 100 µM
- TGI [7]: > 100 µM
- TGI [8]: > 100 µM
- TGI [9]: > 100 µM
- TGI [10]: > 100 µM

SMILES: Cn1cccc1C1CC(=O)N(CCC[Se]C#N)C1=O (centres undefined)
- GI50 [1]: 1.62 µM
- TGI [1]: 4.3 µM
- GI50 [2]: 2.16 µM
- TGI [2]: 7.43 µM
- GI50 [3]: 1.95 µM
- TGI [3]: 3.44 µM
- GI50 [4]: 1.92 µM
- TGI [4]: 3.57 µM
- GI50 [5]: 2.35 µM
- TGI [5]: 14 µM
- GI50 [6]: 1.72 µM
- TGI [6]: 3.48 µM
- GI50 [7]: 1.81 µM
- TGI [7]: 3.29 µM
- GI50 [8]: 1.3 µM
- TGI [8]: 2.78 µM
- GI50 [9]: 2.05 µM
- TGI [9]: 4.44 µM
- GI50 [10]: 1.96 µM
- TGI [10]: 4.05 µM

SMILES: O=C(Nc1ccc(Cl)cc1)C(=O)C1=C(O)c2ccccc2OC1
- TGI [1]: > 100 µM
- TGI [2]: > 100 µM
- TGI [3]: > 100 µM
- TGI [4]: > 100 µM
- TGI [5]: > 100 µM
- TGI [6]: > 100 µM
- TGI [7]: > 100 µM
- TGI [8]: > 100 µM
- TGI [9]: > 100 µM
- TGI [10]: > 100 µM

SMILES: COc1cc(-c2[nH]ncc2CCCC(=O)Nc2ccccc2[N+](=O)[O-])ccc1O
- TGI [1]: > 100 µM
- TGI [2]: > 100 µM
- TGI [3]: > 100 µM
- TGI [4]: > 100 µM
- TGI [5]: > 100 µM
- TGI [6]: > 100 µM
- TGI [7]: > 100 µM
- TGI [8]: > 100 µM
- TGI [9]: > 100 µM
- TGI [10]: > 100 µM

SMILES: COC(=O)Oc1nn(C(=O)OC)c(=O)c2ccccc12 (tested in a mixture with another compound)
- TGI [1]: > 100 µM
- TGI [2]: > 100 µM
- TGI [3]: > 100 µM
- TGI [4]: > 100 µM
- TGI [5]: > 100 µM
- TGI [6]: > 100 µM
- TGI [7]: > 100 µM
- TGI [8]: 99.4 µM
- TGI [9]: > 100 µM
- TGI [10]: > 100 µM

SMILES: CC/C(=C(/CC)c1ccc(OP(=O)([O-])[O-])cc1)c1ccc(OP(=O)([O-])[O-])cc1.N.N.N.N.[Pt+4].[Pt+4]
- GI50 [1]: 2.31 µM
- TGI [1]: 4.96 µM
- GI50 [2]: 1.09 µM
- TGI [2]: 19.5 µM
- GI50 [3]: 4.77 µM
- TGI [3]: > 100 µM
- GI50 [5]: 1.95 µM
- TGI [5]: 7.54 µM
- GI50 [6]: 0.594 µM
- TGI [6]: 2.12 µM
- GI50 [7]: 1.91 µM
- TGI [7]: 12.2 µM
- GI50 [8]: 27.5 µM
- TGI [8]: 61.1 µM
- GI50 [9]: 4.71 µM
- TGI [9]: > 100 µM
- GI50 [10]: 2.22 µM
- TGI [10]: 9.34 µM

SMILES: COC(=O)[C@@]12C3=NO[C@]1(C(=O)OC)C(O[Si](C)(C)C(C)(C)C)C1OC(C)(C)OC1[C@@H]2[C@@H](OCc1ccccc1)CC3 (some centres undefined)
- TGI [1]: > 100 µM
- TGI [2]: > 100 µM
- TGI [3]: > 100 µM
- TGI [5]: > 100 µM
- TGI [6]: > 100 µM
- TGI [7]: > 100 µM
- TGI [8]: > 100 µM
- TGI [9]: > 100 µM
- TGI [10]: > 100 µM

SMILES: COc1ccc(C(NCCNC(c2ccc(OC)c(OC)c2)c2cc3c(cc2O)OCO3)c2cc3c(cc2O)OCO3)cc1OC (centres undefined)
- TGI [1]: 39.1 µM
- TGI [2]: > 100 µM
- TGI [3]: 4.58 µM
- TGI [4]: 7.77 µM
- TGI [5]: 11.5 µM
- TGI [6]: 7.03 µM
- TGI [7]: 17.8 µM
- TGI [8]: 20.2 µM
- TGI [10]: 19.9 µM

SMILES: COc1ccc(C=O)c(N(C)C(=O)C(C)(C)C)c1
- TGI [1]: > 100 µM
- TGI [2]: > 100 µM
- TGI [3]: > 100 µM
- TGI [5]: > 100 µM
- TGI [6]: > 100 µM
- TGI [7]: > 100 µM
- TGI [8]: > 100 µM
- TGI [9]: > 100 µM
- TGI [10]: > 100 µM

SMILES: C=C1CCC2C3(C)COC(c4cccc(Cl)c4)OC3CCC2(C)C1/C=C/C1=CCOC1=O (centres undefined)
- GI50 [1]: 6.92 µM
- TGI [1]: > 100 µM
- GI50 [2]: 6.55 µM
- TGI [2]: > 100 µM
- GI50 [3]: > 100 µM
- TGI [3]: > 100 µM
- GI50 [4]: 7.78 µM
- TGI [4]: > 100 µM
- GI50 [6]: 7.08 µM
- TGI [6]: > 100 µM
- GI50 [7]: 3.59 µM
- TGI [7]: > 100 µM
- GI50 [8]: 2.54 µM
- TGI [8]: > 100 µM
- GI50 [9]: 6.73 µM
- TGI [9]: > 100 µM
- GI50 [10]: 3.39 µM
- TGI [10]: > 100 µM

SMILES: CCOC(=O)C1=C(O)CSC1=Nc1ccc(N=C2SCC(O)=C2C(=O)OCC)cc1
- TGI [1]: 44 µM
- TGI [3]: 31.4 µM
- TGI [4]: 30.8 µM
- TGI [5]: 94.8 µM
- TGI [6]: 63 µM
- TGI [7]: 63.1 µM
- TGI [8]: 50.5 µM
- TGI [9]: > 100 µM
- TGI [10]: 44.3 µM

SMILES: COC(=O)CC(CC(=O)C(=O)OC)C(=O)OC (centres undefined)
- TGI [1]: > 100 µM
- TGI [2]: > 100 µM
- TGI [3]: > 100 µM
- TGI [4]: > 100 µM
- TGI [6]: > 100 µM
- TGI [7]: > 100 µM
- TGI [8]: > 100 µM
- TGI [9]: > 100 µM
- TGI [10]: > 100 µM

SMILES: Oc1ccc(-c2nc(-c3ccc(F)cc3)c(-c3ccncc3)[nH]2)cc1
- GI50 [1]: 28.3 µM
- TGI [1]: > 100 µM
- GI50 [2]: 7.97 µM
- TGI [2]: 32.5 µM
- GI50 [3]: 12.5 µM
- TGI [3]: > 100 µM
- GI50 [5]: 16.5 µM
- TGI [5]: > 100 µM
- GI50 [6]: 25.5 µM
- TGI [6]: > 100 µM
- GI50 [7]: 20.2 µM
- TGI [7]: > 100 µM
- GI50 [8]: 16.7 µM
- TGI [8]: 48.5 µM
- GI50 [9]: 22.1 µM
- TGI [9]: > 100 µM
- GI50 [10]: 4.73 µM
- TGI [10]: 29.6 µM

SMILES: COc1ccc(C(=O)Nc2ccccc2)cc1[N+](=O)[O-]
- TGI [1]: > 100 µM
- TGI [2]: > 100 µM
- TGI [3]: > 100 µM
- TGI [4]: > 100 µM
- TGI [6]: > 100 µM
- TGI [7]: > 100 µM
- TGI [8]: > 100 µM
- TGI [9]: > 100 µM
- TGI [10]: > 100 µM

SMILES: Cn1cc(-c2nonc2-c2cn(C)c3ccc(Br)cc23)c2ccccc21
- GI50 [1]: 4.61 µM
- TGI [1]: > 100 µM
- GI50 [3]: 6.18 µM
- TGI [3]: > 100 µM
- GI50 [4]: 4.33 µM
- TGI [4]: > 100 µM
- GI50 [5]: 5.95 µM
- TGI [5]: > 100 µM
- GI50 [6]: 3.93 µM
- TGI [6]: > 100 µM
- GI50 [7]: 2.89 µM
- TGI [7]: > 100 µM
- GI50 [8]: 3.38 µM
- TGI [8]: > 100 µM
- GI50 [9]: 5.14 µM
- TGI [9]: > 100 µM
- GI50 [10]: 3.37 µM
- TGI [10]: > 100 µM
